Experimental data as given in patent EP0587374A2, “Sulfated sterol glycosides and their use against viral infections” (VIROSTAT (NA) NV, priority 1992, dated 1994).
Values joined by “and” are separate entries in the source; they are usually repeats but may differ in a detail not shown here. Equal values may be shown once. Read-outs that look alike come from different tables or passages of the source.

Tests used:
[1] = tested on: Feline Infectious Peritonitis Virus
[2] = tested on: Feline Herpes virus; conditions: 50 µg/mℓ
[3] = Experimental: The test animal received food and water without restriction.
On Tuesdays and Fridays blood samples were taken for blood chemistry, haematology and the measurement of trough plasma levels of the drug. These samples were taken prior to the administration of the drug, but at intervals as indicated in Figure 2 (which is a histogram of blood concentration levels against time) and Table 5. Blood samples were also taken 5, 10 and 15 minutes after drug adminstration in order to assess the peak plasma concentrations achieved. After 30 days the baboon was sacrificed and tissue samples were collected for testing.

[4] = tested on: blood clotting; conditions: 50 µg/mℓ, prothrombin time in vitro
Experimental: Prothrombin Time was measured according to standard techniques using CaCl₂, citrated-plasma and prothrombin.

[5] = tested on: feline immunodeficiency virus (FIV); test: In vivo anti-FIV test in an experimentally infected cat: antibody titer, haematology, lymphocyte subsets; conditions: 5 mg/kg s.c. weekly from week 10; for WBC: pre-treatment weeks 0/6: 11.8/13.2; for CD4⁺: pre-treatment weeks 0/6: 460/350; for CD8⁺: pre-treatment weeks 0/6: 1115/721; for CD3⁺: pre-treatment weeks 0/6: 1742/1219; for Lymph.: lymphocytes, pre-treatment weeks 0/6: 2600/2380
Experimental: The substance was tested at a dosage rate of 5 mg/kg body mass on a cat infected with feline immunodeficiency virus, administered by subcutaneous injection at weekly intervals over a period of 13 weeks.
A cat which had been experimentally infected with a strain of feline immunodeficiency virus (FIV) using the blood of a naturally infected cat was used for this experiment. […] The haematological and immunological parameters were monitored during the dosage period as described below.
A specimen of blood was used to determine the antibody titer to FIV using a commercial kit (CITE Combo, Indexx Corporation, Portland). The serum was diluted with saline solution and each serum diulation was tested in order to determine the highest dilution yielding positive results. This dilution was subsequently used as the cut-off titer of positivity. The titer of antibodies was determined at regular intervals during the treatment period.
Whole blood was diluted by 50% with RPMI medium and layered on to Histopaque (Sigma) and centrifuged at 200 gravities for 25 minutes. The cells at the interface were collected and washed three times with RPMI. These cells represented the mononuclear cells of the blood and were used for determining the percentage of T-cells and the subsets thereof as described hereunder.
Cells (1 x 10⁶) were incubated in test tubes with aliquots of monoclonal antibody reactive with CD3, CD4 and CD8 antigens. The mixtures of different antibodies were conducted as follows: CD3-FITC + CD4-PE CD3-FITC + CD8-PE
The tubes were incubated for 20 minutes at room temperature and following two washes with phosphate-buffered saline solution (PBS), the cells were fixed with 400 µℓ PBS containing 0.5% formaldehyde.
Cell fluoresence was assessed using a FACScan cytometer. […] The analysis was conducted using the LYSIS II software programme after having set a lymphocyte gate on the FSC versus SSC scattergram. All the results were expressed as percentage positive lymphocytes, i.e. cells which co-expressed CD3 and CD4 or CD3 and CD8 markers. In this way, CD4⁺ T cells, and in a similar fashion, CD8⁺ NK cells, were excluded from the CD3⁺ CD8⁺ T-suppressor cells.
Absolute cell numbers were calculated from basic haematology conducted on an aliquot of the whole blood. From the percentage lymphocyte differential counts, absolute values for positive cells could be calculated. This was conducted for all subsets analyzed.

[6] = for Elimination half-life: open two-compartment model
Excerpt: Two test animals were used. […] Anaesthesia was maintained with halothane. […] Twenty-five blood samples (1.5 mℓ each) were drawn from each test animal at intervals appropriate to the pharmacokinetic modelling. […]

[7] = tested on: HIV-1
[8] = haematology summary, following initial drug administration

In the case of `CC[C@H](CC[C@@H](C)[C@H]1CC[C@H]2[C@@H]3CC=C4C[C@@H](O[C@@H]5O[C@H](COS(=O)(=O)O)[C@@H](OS(=O)(=O)O)[C@H](OS(=O)(=O)O)[C@H]5OS(=O)(=O)O)CC[C@]4(C)[C@H]3CC[C@]12C)C(C)C` [BSSG-(SO₄⁻)₄, β-Sitosteryl β-D-glucoside tetra-sulphate], the viral cytopathic effect ([1]; 5, 12.5, 25 and 50 µg/mℓ, 10²-, […]) is reported as “completely inhibited”, the “cytopathic effect of the drug alone” value ([1]; without virus) is reported as “no cytopathic effect” and the “cytopathic effect of Feline Herpes virus” value [2] is reported as “delayed by a day”. For the same molecule, the behavioral characteristics ([3]; 5 mg/kg i.v. daily, period of treatment) was “remained unchanged”, the “BSSG-³⁵(SO₄⁻)₄ PLASMA LEVEL” value ([3]; 5 mg/kg i.v. daily, sample 3-4-92 (Fri: Pre IV), trough) was 56.0 µg/mL and the “BSSG-³⁵(SO₄⁻)₄ PLASMA LEVEL” value ([3]; 5 mg/kg i.v. daily, sample 7-4-92 (Tues: Pre IV), trough) was 71.0 µg/mL. For the same molecule, the “BSSG-³⁵(SO₄⁻)₄ PLASMA LEVEL” value ([3]; 5 mg/kg i.v. daily, sample 10-4-92 (Fri: 10 min Post IV), peak) was 149.5 µg/mL, the “BSSG-³⁵(SO₄⁻)₄ PLASMA LEVEL” value ([3]; 5 mg/kg i.v. daily, sample 10-4-92 (Fri: Pre IV), trough) was 52.5 µg/mL and the “BSSG-³⁵(SO₄⁻)₄ PLASMA LEVEL” value ([3]; 5 mg/kg i.v. daily, sample 14-4-92 (Tues: 15 min Post IV), peak) was 149.7 µg/mL. The “BSSG-³⁵(SO₄⁻)₄ PLASMA LEVEL” value ([3]; 5 mg/kg i.v. daily, sample 14-4-92 (Tues: Pre IV), trough) was 65.0 µg/mL, the “BSSG-³⁵(SO₄⁻)₄ PLASMA LEVEL” value ([3]; 5 mg/kg i.v. daily, sample 15-4-92 (Wed: 4 hr Post IV)) was 72.5 µg/mL and the “BSSG-³⁵(SO₄⁻)₄ PLASMA LEVEL” value ([3]; 5 mg/kg i.v. daily, sample 27-3-92 (Fri: Pre IV), trough) was 60.3 µg/mL. The “BSSG-³⁵(SO₄⁻)₄ PLASMA LEVEL” value ([3]; 5 mg/kg i.v. daily, sample 31-3-92 (Tues: Pre IV), trough) was 59.0 µg/mL, the “24-hour post-dose-trough plasma levels” value ([3]; 5 mg/kg i.v. daily, subsequent samples of the study period) was greater than 50 µg/mL and the “BSSG-³⁵(SO₄⁻)₄ PLASMA LEVEL” value ([3]; 100 mg (5 mg/kg) i.v. daily Mon-Fri from 16-3-92, sample 24-3-92 (Tues: Pre IV), trough) was 33.8 µg/mL. For the same molecule, the autopsy findings ([3]; after 30 days of 5 mg/kg i.v. daily) was “no organ discoloration or change in organ texture”, the “chemical pathology, overall conclusion” value ([3]; blood chemistry twice a week, Table 6) was “no direct proof that the changes occurring in time were due to direct toxicity of the substance” and the “Haemoglobin (Hb)” value ([3]; general decrease during drug administration from base-line 14.8) was 12.5 g/dL. For the same molecule, the “haematocrit (Hct)” value ([3]; general decrease during drug administration from base-line 43.4) was 36.9%, the monocyte count ([3]; haematology summary, after the second week of drug administration, still present at the end) was “Absolute monocytopaenia” and the “total white cell count” value ([3]; haematology summary, following drug administration) was “slight increase in total white cell count but within normal range”. The lymphocyte count [3, 8] was “transient absolute lymphocytosis”, the platelet count [3, 8] was “transient decrease in platelet count (but still within normal range)” and the “haemolysis (Hb and Hct trend)” value ([3]; haematology summary, supported by biochemical and bone marrow iron findings) was “slight haemolysis”. The “FREE HAEMOGLOBIN CONCENTRATION” value ([3]; plasma, 5 mg/kg i.v. daily, sample 7-4-92 (Tues: Pre IV), before treatment 0.004, 0.005) was 0.005 mg/dL, the “plasma levels of the drug sustained” value ([3]; single daily i.v. injection of 5 mg/kg body mass over a month long period) was 50 to 170 µg/mL and the histological findings ([3]; tissue samples after 30 days of 5 mg/kg i.v. daily) was “not severe and were fairly non-specific”. For the same molecule, the bone marrow cellularity ([3]; trephine biopsy after 30 days, slightly lower than that of an adult man) was “approximately 40%”, the “major routes of excretion” value ([3]; ³⁵S isotope in urine samples and faeces, high levels in the bile) was “via the kidney and the liver” and the “effect on blood clotting” value [4] was “did not affect blood clotting”. For the same molecule, the WBC ([5]; time 12 weeks) was 14.7 x10⁹/ℓ, the “CD4⁺” value ([5]; time 12 weeks) was 315 µL and the “CD8⁺” value ([5]; time 12 weeks) was 432 µL. The “CD3⁺” value ([5]; time 12 weeks) was 964 µL, the WBC ([5]; time 17 weeks) was 14.0 x10⁹/ℓ and the “CD4⁺” value ([5]; time 17 weeks) was 763 µL. The “CD8⁺” value ([5]; time 17 weeks) was 1066 µL, the “CD3⁺” value ([5]; time 17 weeks) was 2035 µL and the WBC ([5]; time 23 weeks) was 15.5 x10⁹/ℓ. For the same molecule, the “CD4⁺” value ([5]; time 23 weeks) was 850 µL, the “CD8⁺” value ([5]; time 23 weeks) was 1610 µL and the “CD3⁺” value ([5]; time 23 weeks) was 2894 µL. For the same molecule, the Lymph. ([5]; time 12 weeks) was 2940 µL, the Lymph. ([5]; time 17 weeks) was 3220 µL and the Lymph. ([5]; time 23 weeks) was 3990 µL. It also gave an Elimination half-life ([6]; High Dose (750 mg) i.v.) of 22 h, a Peak plasma concentration ([6]; High Dose (750 mg), i.v. infusion 30 minutes, total dose 55.6 mg/kg) of 364 µg/mL and an Elimination half-life ([6]; Low Dose (120 mg) i.v.) of 12 h. The Peak plasma concentration ([6]; Low Dose (120 mg), i.v. infusion 15 minutes, total dose 7.14 mg/kg) was 102 µg/mL, the “haemolysis in the blood samples” value ([6]; baboon receiving the lower dose (120 mg i.v.)) was “no evidence of haemolysis” and the “haemolysis in the blood samples” value ([6]; high-dose test animal (750 mg i.v.)) was “macroscopic evidence of haemolysis”. The plasma elimination half-life ([6]; i.v., range over the two doses (120 mg, 750 mg)) was 12 - 20 hours and 12 and 22 hours, the haemodynamic effects ([6]; intravenous administration, very high plasma concentrations) was “did not appear to be any deleterious haemodynamic effects” and the “inhibition of P24 protein synthesis” value ([7]; 50 µg/mℓ, from a number of tests) was 80 - 100%. The “concentration that inhibits P24 protein synthesis by 50%” value ([7]; by extrapolation of the data in Table 3 (4 days), may vary with lymphocyte batch and HIV-1 titre) was 9 µg/mL, the “anti-HIV-1 effect (in words)” value ([7]; in terms of P24 protein production, Tables 1-3) was “marked anti-HIV-1 effects” and the “% INHIBITION OF P24 PROTEIN PRODUCTION” value ([7]; test concentration 0.78 µg/mℓ, duration 4 days) was 4%. For the same molecule, the “% INHIBITION OF P24 PROTEIN PRODUCTION” value ([7]; test concentration 3.125 µg/mℓ, duration 4 days) was 27%, the “% INHIBITION OF P24 PROTEIN PRODUCTION” value ([7]; test concentration 10 µg/mℓ, duration 6 days) was 55% and the “% INHIBITION OF P24 PROTEIN PRODUCTION” value ([7]; test concentration 12.5 µg/mℓ, duration 4 days) was 65%. For the same molecule, the “% INHIBITION OF P24 PROTEIN PRODUCTION” value ([7]; test concentration 25 µg/mℓ, duration 4 days) was 61% and 88%, the “% INHIBITION OF P24 PROTEIN PRODUCTION” value ([7]; test concentration 25 µg/mℓ, duration 6 days) was 91% and the “% INHIBITION OF P24 PROTEIN PRODUCTION” value ([7]; test concentration 50 µg/mℓ, duration 4 days) was 83% and 96%. The “% INHIBITION OF P24 PROTEIN PRODUCTION” value ([7]; test concentration 50 µg/mℓ, duration 6 days) was 100% and the “% INHIBITION OF P24 PROTEIN PRODUCTION” value ([7]; test concentration 100 µg/mℓ, duration 4 days) was 99%.
